Assays:
Format in all cases: in vivo
Echinocloa crus-galli [1] = assay: Herbicidal post-emergence action; conditions: post-emergence method, 80 g/ha
Summary of the method: (§1)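 Greenhouse plants in sandy loam sprayed at the one-leaf stage, 2-3 weeks after sowing, with WP-formulated compound at varied rates in 600 l/ha water plus 0.2% wetting agent. Damage scored visually after about three weeks as percent effect versus untreated controls (100% = dead).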

Setaria viridis [2] = assay: Herbicidal post-emergence action; conditions: post-emergence method, 80 g/ha
Summary of the method: as §1

Lolium multiflorum [3] = assay: Herbicidal post-emergence action; conditions: post-emergence method, 80 g/ha
Summary of the method: as §1

Alopecurus myosuroides [4] = assay: Herbicidal post-emergence action; conditions: post-emergence method, 80 g/ha
Summary of the method: as §1

[5] = system: monocotylidonous and dicotylidonous weed and crop plants; assay: Herbicidal post-emergence action (other test plants); conditions: post-emergence method, 80 g/ha
Summary of the method: as §1

[6] = system: monocotylidonous and dicotylidonous weed and crop plants; assay: Herbicidal pre-emergence action (other test plants); conditions: pre-emergence method, 80 g/ha, greenhouse, visual assessment vs untreated controls
Summary of the method: (§2)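 Seeds sown in sandy loam and covered; WP-formulated compounds applied to the soil surface as aqueous suspension at 600 l/ha with 0.2% wetting agent, at varying rates. Greenhouse-grown; emergence damage scored visually after three weeks versus untreated controls (100% = plants dead, 0% = like control).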

Echinocloa crus-galli [7] = assay: Herbicidal pre-emergence action; conditions: pre-emergence method, 80 g/ha, greenhouse, visual assessment vs untreated controls
Summary of the method: as §2

Setaria viridis [8] = assay: Herbicidal pre-emergence action; conditions: pre-emergence method, 80 g/ha, greenhouse, visual assessment vs untreated controls
Summary of the method: as §2

Lolium multiflorum [9] = assay: Herbicidal pre-emergence action; conditions: pre-emergence method, 80 g/ha, greenhouse, visual assessment vs untreated controls
Summary of the method: as §2

Alopecurus myosuroides [10] = assay: Herbicidal pre-emergence action; conditions: pre-emergence method, 80 g/ha, greenhouse, visual assessment vs untreated controls
Summary of the method: as §2

| Compound | herbicidal effect against ECHCG (Echinochloa crus-galli) (Echinocloa crus-galli [1]) | herbicidal effect against SETVI (Setaria viridis) (Setaria viridis [2]) | herbicidal effect against LOLMU (Lolium multiflorum) (Lolium multiflorum [3]) | herbicidal effect against ALOMY (Alopecurus myosuroides) (Alopecurus myosuroides [4]) | herbicidal effect against AVEFA (Avena fatua) [5] | herbicidal effect AVEFA [6] | herbicidal effect ECHCG (Echinocloa crus-galli [7]) | herbicidal effect SETVI (Setaria viridis [8]) | herbicidal effect LOLMU (Lolium multiflorum [9]) | herbicidal effect ALOMY (Alopecurus myosuroides [10]) |
| --- | --- | --- | --- | --- | --- | --- | --- | --- | --- | --- |
| CCOC1COC2(CC3C(=O)C(c4c(CC)cc(C)cc4CC)=C(OC(=O)OC)C3C2)OC1 (centres unmarked) [I-c-27] | 100% | 100% | 100% | 100% | 100% | 80% | 100% | 90% | 100% | 100% |
| CCc1cc(C)cc(CC)c1C1=C([O-])C2CC3(CC2C1=O)OCCCCO3.[Na+] (centres unmarked) [I-f-17] | 100% | 100% | 100% | 100% | 100% | 60% | 90% | 90% | 100% | 80% |
| CCc1cc(C)cc(C)c1C1=C(OC(=O)C(C)C)C2CC3(CC2C1=O)OCC=CCO3 (centres unmarked) [I-b-76] | 100% | 100% | 100% | 90% | 90% | 60% | 100% | 70% | 100% | 100% |
| CCc1cc(C)cc(CC)c1C1=C(OC(=O)C(C)(C)CC)C2CC3(CC2C1=O)OCCCO3 (centres unmarked) [I-b-30] | 100% | 90% | 100% | 20% | 100% | 70% | 100% | 90% | 100% | 100% |
| CCc1cc(C)cc(C)c1C1=C(OC(=O)C(C)(C)C)C2CC3(CC2C1=O)OCC=CCO3 (centres unmarked) [I-b-75] | 100% | 100% | 100% | 100% | 90% | 60% | 100% | 70% | 100% | 60% |
| CCC(=O)OC1=C(c2c(CC)cc(C)cc2CC)C(=O)C2CC3(CC12)OCCCO3 (centres unmarked) [I-b-24] | 100% | 100% | 100% | 100% | 100% | 70% | 100% | 40% | 100% | 70% |
| CCc1cc(C)cc(CC)c1C1=C(OC(=O)C(C)C)C2CC3(COC(C)(C)O3)CC2C1=O (centres unmarked) [I-b-3] | 100% | 20% | 100% | 100% | 40% | 60% | 0% | 50% | 100% | 90% |
| COc1cc(C)cc(C)c1C1=C(O)C2CC3(CC2C1=O)OCCO3 (centres unmarked) [I-a-48] | 100% | 100% | 100% | 80% | 90% | 60% | 40% | 70% | 80% | 80% |
| CCc1cc(C)cc(CC)c1C1=C(O)C2CC3(CC2C1=O)OC(C)CC(C)O3 (centres unmarked) [I-a-15] | 100% | 90% | 100% | 90% | 90% | 40% | 70% | 70% | 100% | 80% |
| COc1cc(C)cc(C)c1C1=C(O)C2CC3(CC2C1=O)OCC=CCO3 (centres unmarked) [I-a-49] | 100% | 100% | 100% | 100% | 100% | 90% | 100% | 90% | 100% | 100% |
| CCOC(=O)OC1=C(c2c(CC)cc(C)cc2CC)C(=O)C2CC3(CC12)OCC(OC)CO3 (centres unmarked) [I-c-25] | 100% | 100% | 100% | 100% | 100% | 90% | 100% | 80% | 100% | 100% |
| CCc1cc(C)cc(C)c1C1=C(OC(=O)OC)C2CC3(COC(C)(C)O3)CC2C1=O (mixture of isomers) [I-c-79] | 100% | 90% | 100% | 100% | 70% | 80% | 100% | 80% | 100% | 90% |
| Cc1cc(C)c(C2=C(O)C3CC4(CC3C2=O)OCCCCO4)c(C)c1 (centres unmarked) [I-a-40] | 90% | 80% | 90% | 80% | 60% | 40% | 80% | 50% | 100% | 50% |
| Cc1cc(C)c(C2=C(OC(=O)C(C)(C)C)C3CC4(CC3C2=O)OCCCCO4)c(C)c1 (centres unmarked) [I-b-40] | 90% | 80% | 100% | 40% | 20% | 50% | 50% | 30% | 100% | 90% |

From patent US8367873B2, “Phenyl-substituted bicyclooctane-1,3-dione derivatives” (Bayer Cropscience AG, priority 2008, dated 2013)
